Tested on: MDA-MB-468 multi-cell spheroids, viability
Test: Anticancer human tumor MDA-MB-468 cell line growth inhibition [IpAb];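 further: spheroids exposed to agents for seven days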;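 on viability, T/C: 100% = DMSO vehicle control viability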
Details: for IC50: curve of first compound; for viability, T/C: stronger effect = lower value; active means viability on the fitted dose curve at most 10% of control; inactive means the rest
In short: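 Multi-cell spheroids of 60% tumour cells, 25% HUVEC and 15% MSC in ultra-low-attachment U-bottom wells, treated with agents combined with ipatasertib or abemaciclib. Half-log ranges top out near clinical Cmax, or 10 microM when Cmax is unknown.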

Cn1ncnc1[C@H]1c2n[nH]c(=O)c3cc(F)cc(c23)N[C@@H]1c1ccc(F)cc1 + CCN1CCN(Cc2ccc(Nc3ncc(F)c(-c4cc(F)c5nc(C)n(C(C)C)c5c4)n3)nc2)CC1
> 100 nM: IC50 (second compound 0.01 µM) | IC50 (second compound 0.0316 µM) | IC50 (second compound 0.1 µM) | IC50 (second compound 0.316 µM) | IC50 (second compound 1 µM)
inactive: viability, T/C (second compound 0.01 µM, first compound 0.000316 µM) 89% | viability, T/C (second compound 0.01 µM, first compound 0.001 µM) 91.1% | viability, T/C (second compound 0.01 µM, first compound 0.00316 µM) 89.2% | viability, T/C (second compound 0.01 µM, first compound 0.01 µM) 82.8% | viability, T/C (second compound 0.01 µM, first compound 0.0316 µM) 89.6% | viability, T/C (second compound 0.01 µM, first compound 0.1 µM) 63.1% | viability, T/C (second compound 0.0316 µM, first compound 0.000316 µM) 89.1% | viability, T/C (second compound 0.0316 µM, first compound 0.001 µM) 82.4% | viability, T/C (second compound 0.0316 µM, first compound 0.00316 µM) 92% | viability, T/C (second compound 0.0316 µM, first compound 0.01 µM) 73.2% | viability, T/C (second compound 0.0316 µM, first compound 0.0316 µM) 91.6% | viability, T/C (second compound 0.0316 µM, first compound 0.1 µM) 54% | viability, T/C (second compound 0.1 µM, first compound 0.000316 µM) 92% | viability, T/C (second compound 0.1 µM, first compound 0.001 µM) 103% | viability, T/C (second compound 0.1 µM, first compound 0.00316 µM) 94.9% | viability, T/C (second compound 0.1 µM, first compound 0.01 µM) 97.5% | viability, T/C (second compound 0.1 µM, first compound 0.0316 µM) 78.5% | viability, T/C (second compound 0.1 µM, first compound 0.1 µM) 63.7% | viability, T/C (second compound 0.316 µM, first compound 0.000316 µM) 92.8% | viability, T/C (second compound 0.316 µM, first compound 0.001 µM) 85% | viability, T/C (second compound 0.316 µM, first compound 0.00316 µM) 86.6% | viability, T/C (second compound 0.316 µM, first compound 0.01 µM) 90.2% | viability, T/C (second compound 0.316 µM, first compound 0.0316 µM) 78.2% | viability, T/C (second compound 0.316 µM, first compound 0.1 µM) 70.1% | viability, T/C (second compound 1 µM, first compound 0.000316 µM) 86.7% | viability, T/C (second compound 1 µM, first compound 0.001 µM) 83.5% | viability, T/C (second compound 1 µM, first compound 0.00316 µM) 82.3% | viability, T/C (second compound 1 µM, first compound 0.01 µM) 68.2% | viability, T/C (second compound 1 µM, first compound 0.0316 µM) 66.6% | viability, T/C (second compound 1 µM, first compound 0.1 µM) 68.9%

— PubChem BioAssay AID2060326 (Molecular Pharmacology Branch, DTP, NCI, 2025)
